Measured values reported in patent US10770169B2, “Method of providing a treatment to a subject based on a dynamic pathway map” (THE REGENTS OF THE UNIVERSITY OF CALIFORNIA, priority 2010, dated 2020).
Like-named read-outs stand apart in the source and are kept apart here.

Legend:
[1] = system: panel of 55 breast cancer cell lines; experiment: Cell growth inhibition assay (Cell Titer Glo, 72 h, 9 doses; GI50, TGI, LC50); format: cell-based, human; conditions: Homo sapiens, read-out: GI50 (converted)
[2] = system: luminal, basal, claudin-low and ERBB2AMP breast cancer cell lines; experiment: Associations of clinically relevant subtypes and response (non-parametric ANOVA or t-test on GI50 ranks); format: cell-based, human
Outline: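 GI50 values were compared between cell-line subtype groups by non-parametric ANOVA or t-test on ranks. P-values from three test sets were combined and FDR-corrected. Significant three-group effects were followed by post-hoc comparison of each group against all others, and FDR p<0.20 counted as significant.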

COc1cc([C@@H]2c3cc4c(cc3[C@@H](O[C@@H]3O[C@@H]5CO[C@@H](C)O[C@H]5[C@H](O)[C@H]3O)[C@H]3COC(=O)[C@H]23)OCO4)cc(OC)c1O [Etoposide]
GI50 ([1]; 600MPE cell line, censored GI50 values): 9.77 µM | GI50 ([1]; AU565, AU565 cell line, censored GI50 values): 0.676 µM | GI50 ([1]; AU565, cell line AU565): 0.676 µM | GI50 ([1]; BT-20, BT20 cell line, censored GI50 values): 3.31 µM | GI50 ([1]; BT-20, cell line BT20): 3.31 µM | GI50 ([1]; BT-474, BT474 cell line, censored GI50 values): 19.1 µM | GI50 ([1]; BT-474, cell line BT474): 19.1 µM | GI50 ([1]; BT-483, BT483 cell line, censored GI50 values): 4.27 µM | GI50 ([1]; BT-483, cell line BT483): 4.27 µM | GI50 ([1]; BT-549, BT549 cell line, censored GI50 values): 1.38 µM | GI50 ([1]; BT-549, cell line BT549): 1.38 µM | GI50 ([1]; CAMA-1, CAMA1 cell line, censored GI50 values): 5.01 µM | GI50 ([1]; CAMA-1, cell line CAMA1): 5.01 µM | GI50 ([1]; HCC38, HCC38 cell line, censored GI50 values): 0.295 µM | GI50 ([1]; HCC38, cell line HCC38): 0.295 µM | GI50 ([1]; HCC70, HCC70 cell line, censored GI50 values): 12.9 µM | GI50 ([1]; HCC70, cell line HCC70): 12.9 µM | GI50 ([1]; HCC202, HCC202 cell line, censored GI50 values): 0.933 µM | GI50 ([1]; HCC202, cell line HCC202): 0.933 µM | GI50 ([1]; HCC1143, HCC1143 cell line, censored GI50 values): 5.13 µM | GI50 ([1]; HCC1143, cell line HCC1143): 5.13 µM | GI50 ([1]; HCC1187, HCC1187 cell line, censored GI50 values): 0.692 µM | GI50 ([1]; HCC1187, cell line HCC1187): 0.692 µM | GI50 ([1]; HCC1395, HCC1395 cell line, censored GI50 values): 3.09 µM | GI50 ([1]; HCC1395, cell line HCC1395): 3.09 µM | GI50 ([1]; HCC1419, HCC1419 cell line, censored GI50 values): 70.8 µM | GI50 ([1]; HCC1419, cell line HCC1419): 70.8 µM | GI50 ([1]; HCC1428, HCC1428 cell line, censored GI50 values): 34.7 µM | GI50 ([1]; HCC1428, cell line HCC1428): 34.7 µM | GI50 ([1]; HCC1500, HCC1500 cell line, censored GI50 values): 1.41 µM | GI50 ([1]; HCC1500, cell line HCC1500): 1.41 µM | GI50 ([1]; HCC1806, HCC1806 cell line, censored GI50 values): 3.09 µM | GI50 ([1]; HCC1806, cell line HCC1806): 3.09 µM | GI50 ([1]; HCC1937, HCC1937 cell line, censored GI50 values): 4.57 µM | GI50 ([1]; HCC1937, cell line HCC1937): 4.57 µM | GI50 ([1]; HCC1954, HCC1954 cell line, censored GI50 values): 1 µM | GI50 ([1]; HCC1954, cell line HCC1954): 1 µM | GI50 ([1]; HCC2185 cell line, censored GI50 values): 7.76 µM | GI50 ([1]; HCC3153 cell line, censored GI50 values): 2.95 µM | GI50 ([1]; MCF7, MCF7 cell line, censored GI50 values): 11.2 µM | GI50 ([1]; MCF7, cell line MCF7): 11.2 µM | GI50 ([1]; MDA-MB-134-VI, MDAMB134VI cell line, censored GI50 values): 2.45 µM | GI50 ([1]; MDA-MB-157, MDAMB157 cell line, censored GI50 values): 0.955 µM | GI50 ([1]; MDA-MB-157, cell line MDAMB157): 0.955 µM | GI50 ([1]; MDA-MB-175-VII, MDAMB175VII cell line, censored GI50 values): 72.4 µM | GI50 ([1]; MDA-MB-231, MDAMB231 cell line, censored GI50 values): 2.04 µM | GI50 ([1]; MDA-MB-231, cell line MDAMB231): 2.04 µM | GI50 ([1]; MDA-MB-361, MDAMB361 cell line, censored GI50 values): 14.1 µM | GI50 ([1]; MDA-MB-361, cell line MDAMB361): 14.1 µM | GI50 ([1]; MDA-MB-415, MDAMB415 cell line, censored GI50 values): 13.8 µM | GI50 ([1]; MDA-MB-415, cell line MDAMB415): 13.8 µM | GI50 ([1]; MDA-MB-436, MDAMB436 cell line, censored GI50 values): 1 µM | GI50 ([1]; MDA-MB-436, cell line MDAMB436): 1 µM | GI50 ([1]; MDA-MB-453, MDAMB453 cell line, censored GI50 values): 5.01 µM | GI50 ([1]; MDA-MB-453, cell line MDAMB453): 5.01 µM | GI50 ([1]; MDA-MB-468, MDAMB468 cell line, censored GI50 values): 2.57 µM | GI50 ([1]; MDA-MB-468, cell line MDAMB468): 2.57 µM | GI50 ([1]; SK-BR-3, SKBR3 cell line, censored GI50 values): 1.2 µM | GI50 ([1]; SK-BR-3, cell line SKBR3): 1.2 µM | GI50 ([1]; SUM52PE, SUM52PE cell line, censored GI50 values): 2.57 µM | GI50 ([1]; SUM52PE, cell line SUM52PE): 2.57 µM | GI50 ([1]; SUM149PT, SUM149PT cell line, censored GI50 values): 2.63 µM | GI50 ([1]; SUM149PT, cell line SUM149PT): 2.63 µM | GI50 ([1]; SUM185PE, SUM185PE cell line, censored GI50 values): 4.9 µM | GI50 ([1]; SUM185PE, cell line SUM185PE): 4.9 µM | GI50 ([1]; SUM225CWN, SUM225CWN cell line, censored GI50 values): 10.2 µM | GI50 ([1]; SUM225CWN, cell line SUM225CWN): 10.2 µM | GI50 ([1]; SUM1315MO2, SUM1315MO2 cell line, censored GI50 values): 0.288 µM | GI50 ([1]; SUM-159-PT, SUM159PT cell line, censored GI50 values): 0.776 µM | GI50 ([1]; SUM-159-PT, cell line SUM159PT): 0.776 µM | GI50 ([1]; T47D, T47D cell line, censored GI50 values): 1.07 µM | GI50 ([1]; T47D, cell line T47D): 1.07 µM | GI50 ([1]; UACC-893, UACC893 cell line, censored GI50 values): 55 µM | GI50 ([1]; UACC-893, cell line UACC893): 55 µM | GI50 ([1]; ZR-75-1, ZR751 cell line, censored GI50 values): 2.09 µM | GI50 ([1]; ZR-75-1, cell line ZR751): 2.09 µM | GI50 ([1]; ZR-75B, ZR75B cell line, censored GI50 values): 0.871 µM | GI50 ([1]; ZR-75B, cell line ZR75B): 0.871 µM | GI50 ([1]; cell line 600MPE): 9.77 µM | GI50 ([1]; cell line HCC2185): 7.76 µM | GI50 ([1]; cell line HCC3153): 2.95 µM | GI50 ([1]; cell line MDAMB134V): 2.45 µM | GI50 ([1]; cell line MDAMB175V): 72.4 µM | GI50 ([1]; cell line SUM1315MO): 0.288 µM | subtype-specific response (sensitivity by transcriptional subtype) ([2]; GI50 across subtypes): preferential activity in basal and/or claudin-low cell lines | Subtype specificity ([2]; Table 6, most sensitive subtype, FDR p<0.20): Claudin-low
